Assay results as given in the supplement of paper PMC13380429.

Assays:
[1] = tested on: Caco-2; test: drug sensitivity score (DSS) for viability; higher = more toxic; extreme values may be limits of the assay; conditions: 72 h
[2] = tested on: Vero E6; test: as above; conditions: 72 h
[3] = tested on: HepG2; test: as above; conditions: 72 h
[4] = tested on: Calu-3; test: as above; conditions: 72 h
[5] = tested on: U2OS; test: as above; conditions: 72 h
[6] = tested on: A549-ACE2; test: drug-induced phospholipidosis relative to tamoxifen; higher = more phospholipidosis
[7] = tested on: A549-ACE2 infected with SARS-CoV-2; test: SARS-CoV-2 infection rate relative to DMSO; higher = more infection; conditions: 24 h
[8] = tested on: A549-ACE2 infected with SARS-CoV-2; test: cell count relative to DMSO; higher = less toxic; conditions: 24 h
[9] = tested on: Caco-2; test: relative viability EC50 (midpoint between 100% and the lowest measured viability); higher = less toxic; conditions: 72 h
[10] = tested on: Vero E6; test: as above; conditions: 72 h
[11] = tested on: HepG2; test: as above; conditions: 72 h
[12] = tested on: Calu-3; test: as above; conditions: 72 h
[13] = tested on: A549-ACE2; test: phospholipidosis EC50; higher = less potent phospholipidosis inducer
[14] = tested on: Caco-2; test: cell viability relative to DMSO; higher = less toxic; conditions: 72 h
[15] = tested on: Vero E6; test: as above; conditions: 72 h
[16] = tested on: HepG2; test: as above; conditions: 72 h
[17] = tested on: Calu-3; test: as above; conditions: 72 h
[18] = tested on: U2OS; test: as above; conditions: 72 h
[19] = tested on: A549-ACE2 infected with SARS-CoV-2; test: morphology score (similarity to uninfected cells); higher = more like uninfected cells; conditions: 24 h
[20] = tested on: U2OS; test: relative viability EC50 (midpoint between 100% and the lowest measured viability); higher = less toxic; conditions: 72 h

COc1ccc(NC(=O)c2ccc(-c3ccc(-c4noc(C)n4)cc3C)cc2)cc1N1CCN(C)CC1
Conditions	drug sensitivity score	relative viability EC50 [µM]
[1]	4	–
[2]	4.2	–
[3]	4.2	–
[4]	5	–
[5]	2.5	–
[9]	–	2.36
[10]	–	2.79
[11]	–	3.38
[12]	–	3.27

drug-induced phospholipidosis [%], [6]
Conditions	0.3 µM	0.833333 µM	3.33333 µM	6.66667 µM	10 µM	30 µM
24 h	2.12	35	61.8	56.7	35.2	28.3
48 h	4.59	17.3	79.1	76.8	56.3	–
72 h	4.03	12.8	79.8	80.8	–	–

Conditions	SARS-CoV-2 infection rate [%]	cell count [%]	cell viability [%]	morphology score	phospholipidosis EC50 [µM]
[7], 0.1 µM	106	–	–	–	–
[7], 0.3 µM	99	–	–	–	–
[7], 1 µM	85	–	–	–	–
[7], 3 µM	31	–	–	–	–
[8], 0.1 µM	–	97	–	–	–
[8], 0.3 µM	–	104	–	–	–
[8], 1 µM	–	109	–	–	–
[8], 3 µM	–	117	–	–	–
[13], 24 h	–	–	–	–	0.719
[13], 48 h	–	–	–	–	0.984
[13], 72 h	–	–	–	–	1.27
[14], 1 nM	–	–	105	–	–
[14], 10 nM	–	–	92.5	–	–
[14], 100 nM	–	–	98.8	–	–
[14], 1000 nM	–	–	94.4	–	–
[14], 10000 nM	–	–	42.8	–	–
[15], 1 nM	–	–	106	–	–
[15], 10 nM	–	–	101	–	–
[15], 100 nM	–	–	105	–	–
[15], 1000 nM	–	–	96.6	–	–
[15], 10000 nM	–	–	31.6	–	–
[16], 1 nM	–	–	97.5	–	–
[16], 10 nM	–	–	109	–	–
[16], 100 nM	–	–	98.9	–	–
[16], 1000 nM	–	–	103	–	–
[16], 10000 nM	–	–	19.1	–	–
[17], 1 nM	–	–	110	–	–
[17], 10 nM	–	–	109	–	–
[17], 100 nM	–	–	99.2	–	–
[17], 1000 nM	–	–	102	–	–
[17], 10000 nM	–	–	7.9	–	–
[18], 1 nM	–	–	103	–	–
[18], 10 nM	–	–	102	–	–
[18], 100 nM	–	–	106	–	–
[18], 1000 nM	–	–	99.3	–	–
[18], 10000 nM	–	–	54.2	–	–
[19], 0.1 µM	–	–	–	-0.16	–
[19], 0.3 µM	–	–	–	0.15	–
[19], 1 µM	–	–	–	0.46	–
[19], 3 µM	–	–	–	0.78	–

C[C@@H](Oc1cc(-n2cnc3ccc(CN4CCN(C)CC4)cc32)sc1C(N)=O)c1ccccc1C(F)(F)F
Conditions	drug sensitivity score	relative viability EC50 [µM]
[1]	11.1	–
[2]	9.3	–
[3]	25.5	–
[4]	5.5	–
[5]	13.3	–
[10]	–	0.444
[11]	–	0.054
[12]	–	1.73
[20]	–	0.0804

[6], 24 h
Conditions	drug-induced phospholipidosis [%]
0.3 µM	14.3
0.833333 µM	26.9
3.33333 µM	156
6.66667 µM	198
10 µM	260
30 µM	246

Conditions	SARS-CoV-2 infection rate [%]	cell count [%]	cell viability [%]	morphology score	phospholipidosis EC50 [µM]
[7], 0.1 µM	104	–	–	–	–
[7], 0.3 µM	101	–	–	–	–
[7], 1 µM	103	–	–	–	–
[7], 3 µM	36	–	–	–	–
[8], 0.1 µM	–	60	–	–	–
[8], 0.3 µM	–	55	–	–	–
[8], 1 µM	–	61	–	–	–
[8], 3 µM	–	62	–	–	–
[13], 24 h	–	–	–	–	2.9
[14], 1 nM	–	–	96.8	–	–
[14], 10 nM	–	–	95.2	–	–
[14], 100 nM	–	–	67.2	–	–
[14], 1000 nM	–	–	62.7	–	–
[14], 10000 nM	–	–	68.5	–	–
[15], 1 nM	–	–	101	–	–
[15], 10 nM	–	–	104	–	–
[15], 100 nM	–	–	77.2	–	–
[15], 1000 nM	–	–	64.6	–	–
[15], 10000 nM	–	–	36	–	–
[16], 1 nM	–	–	98.2	–	–
[16], 10 nM	–	–	101	–	–
[16], 100 nM	–	–	23.9	–	–
[16], 1000 nM	–	–	19.4	–	–
[16], 10000 nM	–	–	8	–	–
[17], 1 nM	–	–	105	–	–
[17], 10 nM	–	–	86.9	–	–
[17], 100 nM	–	–	84.5	–	–
[17], 1000 nM	–	–	84.8	–	–
[17], 10000 nM	–	–	36.1	–	–
[18], 1 nM	–	–	104	–	–
[18], 10 nM	–	–	101	–	–
[18], 100 nM	–	–	67.9	–	–
[18], 1000 nM	–	–	51.8	–	–
[18], 10000 nM	–	–	48.8	–	–
[19], 0.1 µM	–	–	–	0.01	–
[19], 0.3 µM	–	–	–	0.06	–
[19], 1 µM	–	–	–	0.19	–
[19], 3 µM	–	–	–	0.65	–

Cc1[nH]c(/C=C2\C(=O)Nc3ccc(S(=O)(=O)N(C)c4cccc(Cl)c4)cc32)c(C)c1C(=O)N1CCN(C)CC1
Conditions	drug sensitivity score	relative viability EC50 [µM]
[1]	0.5	–
[2]	0	–
[3]	1.3	–
[4]	0.3	–
[5]	0	–
[9]	–	> 10
[10]	–	> 10
[12]	–	> 10
[20]	–	> 10

drug-induced phospholipidosis [%], [6]
Conditions	0.3 µM	0.833333 µM	3.33333 µM	6.66667 µM	10 µM	30 µM
24 h	22.5	42.3	133	230	269	324
48 h	12.7	30.6	129	–	333	340
72 h	9.3	20.7	128	–	–	–

Conditions	SARS-CoV-2 infection rate [%]	cell count [%]	cell viability [%]	morphology score	phospholipidosis EC50 [µM]
[7], 0.3 µM	89	–	–	–	–
[7], 3 µM	46	–	–	–	–
[7], 10 µM	20	–	–	–	–
[7], 30 µM	34	–	–	–	–
[8], 0.3 µM	–	94	–	–	–
[8], 3 µM	–	105	–	–	–
[8], 10 µM	–	70	–	–	–
[8], 30 µM	–	85	–	–	–
[13], 24 h	–	–	–	–	4.77
[13], 48 h	–	–	–	–	3.94
[14], 1 nM	–	–	96	–	–
[14], 10 nM	–	–	98.5	–	–
[14], 100 nM	–	–	99.9	–	–
[14], 1000 nM	–	–	97.5	–	–
[14], 10000 nM	–	–	85.2	–	–
[15], 1 nM	–	–	101	–	–
[15], 10 nM	–	–	102	–	–
[15], 100 nM	–	–	94.3	–	–
[15], 1000 nM	–	–	107	–	–
[15], 10000 nM	–	–	88.1	–	–
[16], 1 nM	–	–	106	–	–
[16], 10 nM	–	–	105	–	–
[16], 100 nM	–	–	93.5	–	–
[16], 1000 nM	–	–	103	–	–
[16], 10000 nM	–	–	66.5	–	–
[17], 1 nM	–	–	106	–	–
[17], 10 nM	–	–	93.5	–	–
[17], 100 nM	–	–	112	–	–
[17], 1000 nM	–	–	101	–	–
[17], 10000 nM	–	–	83.8	–	–
[18], 1 nM	–	–	104	–	–
[18], 10 nM	–	–	98.2	–	–
[18], 100 nM	–	–	106	–	–
[18], 1000 nM	–	–	101	–	–
[18], 10000 nM	–	–	91	–	–
[19], 0.3 µM	–	–	–	0.29	–
[19], 3 µM	–	–	–	0.61	–
[19], 10 µM	–	–	–	0.45	–
[19], 30 µM	–	–	–	0.53	–

C=CCN(C)CCCCCCOc1ccc(C(=O)c2ccc(Br)cc2)c(F)c1 [Ro-48-8071]
Conditions	drug sensitivity score	relative viability EC50 [µM]
[1]	5.5	–
[2]	0.7	–
[3]	4.6	–
[4]	2.3	–
[5]	1.1	–
[9]	–	1.31
[10]	–	> 10
[11]	–	2.38
[20]	–	> 10

drug-induced phospholipidosis [%], [6]
Conditions	0.3 µM	0.833333 µM	3.33333 µM	6.66667 µM	10 µM	30 µM
24 h	2.62	7.33	44.1	86.2	90.2	82
48 h	5.45	7.84	36.4	96.4	115	–
72 h	4.46	5.92	27.7	95.3	127	–

Conditions	SARS-CoV-2 infection rate [%]	cell count [%]	cell viability [%]	morphology score	phospholipidosis EC50 [µM]
[7], 0.3 µM	102	–	–	–	–
[7], 3 µM	59	–	–	–	–
[7], 10 µM	25	–	–	–	–
[7], 30 µM	38	–	–	–	–
[8], 0.3 µM	–	103	–	–	–
[8], 3 µM	–	114	–	–	–
[8], 10 µM	–	117	–	–	–
[8], 30 µM	–	70	–	–	–
[13], 24 h	–	–	–	–	3.35
[13], 48 h	–	–	–	–	4.65
[13], 72 h	–	–	–	–	5.61
[14], 1 nM	–	–	97.5	–	–
[14], 10 nM	–	–	101	–	–
[14], 100 nM	–	–	102	–	–
[14], 1000 nM	–	–	81.7	–	–
[14], 10000 nM	–	–	45.9	–	–
[15], 1 nM	–	–	104	–	–
[15], 10 nM	–	–	100	–	–
[15], 100 nM	–	–	100	–	–
[15], 1000 nM	–	–	94.6	–	–
[15], 10000 nM	–	–	84.5	–	–
[16], 1 nM	–	–	104	–	–
[16], 10 nM	–	–	98.3	–	–
[16], 100 nM	–	–	92.1	–	–
[16], 1000 nM	–	–	93.7	–	–
[16], 10000 nM	–	–	34	–	–
[17], 1 nM	–	–	95.1	–	–
[17], 10 nM	–	–	95.7	–	–
[17], 100 nM	–	–	97.4	–	–
[17], 1000 nM	–	–	99.7	–	–
[17], 10000 nM	–	–	55.3	–	–
[18], 1 nM	–	–	98.6	–	–
[18], 10 nM	–	–	102	–	–
[18], 100 nM	–	–	93.5	–	–
[18], 1000 nM	–	–	96	–	–
[18], 10000 nM	–	–	79	–	–
[19], 0.3 µM	–	–	–	-0.04	–
[19], 3 µM	–	–	–	0.67	–
[19], 10 µM	–	–	–	0.73	–
[19], 30 µM	–	–	–	0.1	–
